From ChEMBL document CHEMBL1125003, “Synthesis, biological evaluation, and quantitative structure-activity relationship analysis of [beta-(Aroylamino)ethyl]piperazines and -piperidines and [2-[(Arylamino)carbonyl]ethyl]piperazines, -pyrazinopyridoindoles, and -pyrazinoisoquinolines. A new class of potent H1 antagonists” (J Med Chem, 1990)
Where “and” joins values, the source holds several entries; their conditions need not be identical. Identical values can stand only once.

What follows are compounds tested against Histamine H1 receptor (Cavia porcellus, UniProt P31389) (assay: Antihistaminic activity against Histamine H1 receptor was measured on isolated terminal part of guinea pig ileum). Settings: read-out: I50.
Histamine H1 receptor, sequence (P31389 whole entry): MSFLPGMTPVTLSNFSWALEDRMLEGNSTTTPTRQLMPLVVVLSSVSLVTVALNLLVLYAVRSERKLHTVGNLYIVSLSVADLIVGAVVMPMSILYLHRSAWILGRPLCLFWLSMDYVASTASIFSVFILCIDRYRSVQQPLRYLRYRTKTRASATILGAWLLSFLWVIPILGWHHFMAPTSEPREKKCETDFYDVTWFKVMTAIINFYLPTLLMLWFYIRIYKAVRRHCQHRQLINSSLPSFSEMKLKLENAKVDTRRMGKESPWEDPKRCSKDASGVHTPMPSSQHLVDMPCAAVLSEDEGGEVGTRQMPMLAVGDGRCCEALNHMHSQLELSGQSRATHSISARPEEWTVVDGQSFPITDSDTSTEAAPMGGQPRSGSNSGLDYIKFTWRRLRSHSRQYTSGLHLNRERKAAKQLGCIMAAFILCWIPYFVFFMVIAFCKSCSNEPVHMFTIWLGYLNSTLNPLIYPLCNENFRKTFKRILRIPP
Assay type: tissue-based

| IC50 | Structure (SMILES) |
| --- | --- |
| 963 nM | COc1ccccc1NC(=O)CCN1CCC(Cc2ccccc2)CC1 |

Same assay, conditions: read-out: I50 (converted)

| Structure (SMILES) | IC50 |
| --- | --- |
| O=C(CCN1CCN2Cc3ccccc3CC2C1)Nc1ccccc1 (stereo unspecified) | 1340 nM |
| O=C(CCN1CCN2Cc3[nH]c4ccccc4c3CC2C1)Nc1ccccc1[N+](=O)[O-] (stereo unspecified) | 1740 nM |
| ClN1CCN2Cc3[nH]c4ccccc4c3CC2C1 (stereo unspecified) | 206 nM |
| O=C(CCN1CCN2Cc3[nH]c4ccccc4c3CC2C1)Nc1ccccc1 (stereo unspecified) | 1600 nM |
| O=C(CCN1CCN2Cc3[nH]c4ccccc4c3CC2C1)Nc1ccccc1F (stereo unspecified) | 1280 nM and 1270 nM |
| O=C(CCN1CCN(Cc2ccccc2)CC1)Nc1ccccc1[N+](=O)[O-] | 1700 nM and 2040 nM |
| O=C(CCN1CCN2Cc3[nH]c4ccccc4c3CC2C1)Nc1ccccc1Cl (stereo unspecified) | 979 nM and 978 nM |
| COc1ccccc1C(=O)NCCN1CCN2Cc3[nH]c4ccccc4c3CC2C1 (stereo unspecified) | 364 nM |
| c1ccc2c3c([nH]c2c1)CN1CCNCC1C3 (stereo unspecified) | 535 nM |
| CCc1ccccc1NC(=O)CCN1CCN2Cc3[nH]c4ccccc4c3CC2C1 (stereo unspecified) | 634 nM |
| O=C(NCCN1CCN(Cc2ccccc2)CC1)c1ccccc1 | 6940 nM and 8500 nM |
| O=C(CCN1CCN(Cc2ccccc2)CC1)Nc1ccccc1 | 2170 nM and 2200 nM |
| O=C(NCCN1CCN(Cc2ccccc2)CC1)c1ccccc1Br | 421 nM and 497 nM |
| O=C(CCN1CCN2Cc3ccccc3CC2C1)Nc1ccccc1Cl (stereo unspecified) | 677 nM and 676 nM |
| CN1CCN2Cc3[nH]c4ccccc4c3CC2C1 (stereo unspecified) | 283 nM |
| O=C(NCCN1CCN(Cc2ccccc2)CC1)c1ccccc1Cl | 696 nM and 838 nM |
| NN1CCN2Cc3[nH]c4ccccc4c3CC2C1 (stereo unspecified) | 925 nM |
| CCc1ccccc1NC(=O)CCN1CCN2Cc3ccccc3CC2C1 (stereo unspecified) | 525 nM and 523 nM |
| O=[N+]([O-])N1CCN2Cc3[nH]c4ccccc4c3CC2C1 (stereo unspecified) | 375 nM |

The next lines start with the values.

| IC50 | Structure (SMILES) |
| --- | --- |
| 661 nM and 673 nM | O=C(NCCN1CCC(Cc2ccccc2)CC1)c1ccccc1Br |
| 1320 nM and 1310 nM | O=C(CCN1CCN2Cc3ccccc3CC2C1)Nc1ccccc1[N+](=O)[O-] (stereo unspecified) |
| 561 nM and 560 nM | O=C(CCN1CCC(Cc2ccccc2)CC1)Nc1ccccc1Cl |
| 1320 nM and 1570 nM | O=C(NCCN1CCN(Cc2ccccc2)CC1)c1ccccc1[N+](=O)[O-] |
| 345 nM and 401 nM | O=C(NCCN1CCN(Cc2ccccc2)CC1)c1ccccc1I |
| 778 nM and 939 nM | CCc1ccccc1NC(=O)CCN1CCN(Cc2ccccc2)CC1 |
| 832 nM and 822 nM | O=C(CCN1CCC(Cc2ccccc2)CC1)Nc1ccccc1F |
| 1320 nM and 908 nM | O=C(CCN1CCN(Cc2ccccc2)CC1)Nc1ccccc1F |
| 836 nM and 1010 nM | O=C(CCN1CCN(Cc2ccccc2)CC1)Nc1ccccc1Cl |
| 1550 nM and 1740 nM | O=C(NCCN1CCC(Cc2ccccc2)CC1)c1ccccc1 |
| 799 nM and 785 nM | O=C(NCCN1CCC(Cc2ccccc2)CC1)c1ccccc1Cl |
| 1070 nM and 1190 nM | Cc1ccccc1C(=O)NCCN1CCC(Cc2ccccc2)CC1 |
| 477 nM and 485 nM | CCc1ccccc1NC(=O)CCN1CCC(Cc2ccccc2)CC1 |
| 1510 nM and 1520 nM | O=C(CCN1CCC(Cc2ccccc2)CC1)Nc1ccccc1 |
| 965 nM | COc1ccccc1NC(=O)CCN1CCC(Cc2ccccc2)CC1 |
| 7120 nM and 7110 nM | Cc1ccccc1C(=O)NCCN1CCN(Cc2ccccc2)CC1 |
